Ten molecules from ChEMBL document CHEMBL1201862, “PubChem BioAssay data set” (2004) can be followed below.

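Values below derive from 48-hour exposures of cells grown in 96-well plates, with endpoints linearly interpolated between the two concentrations bracketing the appropriate inhibition level. GI50 marks 50% less growth.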 Active and inactive are the calls of the source. Cut-off read from the data, not from the text of the source: active = GI50 up to about 1.1 µM and inactive = higher. Some results are limits rather than exact numbers.

Test systems include HCT-15; HCT-116; SN12C; IGROV-1; SF-295; LOX IMVI; CAKI-1; DU-145; SW-620; 786-0; OVCAR-3; HT-29; HOP-92; SR; SK-MEL-2; MDA-MB-435; HOP-62; CCRF-CEM; OVCAR-8; A498.
Holding throughout (assay): growth of human tumour cells (NCI), 48 h

For the molecule `N#Cc1c(C#N)c(SSc2c(C#N)c(C#N)c(N)n2-c2cccc3ccccc23)n(-c2cccc3ccccc23)c1N`, the GI50 was 1.98 µM with HCT-15; 2.37 µM (inactive) with HCT-116; 12 µM (inactive) with SN12C; 7.45 µM (inactive) with IGROV-1; 19.9 µM (inactive) in the experiment with SF-295; 7.94 µM (inactive) in the experiment on LOX IMVI. Further, the GI50 in the experiment with CAKI-1 was 8.05 µM (inactive); with DU-145, 21.9 µM (inactive); in the experiment on SW-620 it was 2.56 µM (inactive); with 786-0, 1.98 µM (inactive); with OVCAR-3, 1.84 µM (inactive); with HT-29 it was 19.7 µM (inactive). Further, the GI50 was 4.71 µM (inactive) in the experiment on HOP-92; 2.34 µM (inactive) with SR; 15.3 µM (inactive) in the experiment on SK-MEL-2; 8.77 µM (inactive) in the experiment with MDA-MB-435; 21.7 µM (inactive) in the experiment with HOP-62; 1.97 µM (inactive) with CCRF-CEM. The GI50 in the experiment with OVCAR-8 is 4.36 µM (inactive); with A498 it was 30.2 µM (inactive).
As for `COC(=O)c1ccc(NC(=O)c2cc3c(cc2Br)OCO3)o1`, the GI50 in the experiment with HCT-15 is 94 µM; in the experiment with HCT-116, > 100 µM (inactive); in the experiment with SN12C, > 100 µM (inactive); in the experiment with IGROV-1 it was > 100 µM (inactive); with SF-295, > 100 µM (inactive); in the experiment on LOX IMVI, > 100 µM (inactive). Further, the GI50 with CAKI-1, in the experiment with DU-145, in the experiment on SW-620, in the experiment on 786-0, in the experiment on OVCAR-3 and in the experiment with HT-29 was > 100 µM (inactive) each time. In addition, the GI50 was 26.5 µM (inactive) in the experiment on HOP-92; 41.4 µM (inactive) in the experiment with SR; > 100 µM (inactive) in the experiment on SK-MEL-2; 32.7 µM (inactive) in the experiment with MDA-MB-435; > 100 µM (inactive) with HOP-62; > 100 µM (inactive) in the experiment on CCRF-CEM. Also, the GI50 with OVCAR-8 and with A498 was > 100 µM (inactive) throughout.
Regarding `N=c1nc(N)c2cc3c(N)nc(=N)c3cc12`, the GI50 with HCT-15 was 71.6 µM; with HCT-116, 4.55 µM (inactive); in the experiment with SN12C, 5.07 µM (inactive); with IGROV-1 it was > 100 µM (inactive); in the experiment with SF-295 it was 14.9 µM (inactive); in the experiment on LOX IMVI, 2.49 µM (inactive). Also, the GI50 was 8.38 µM (inactive) in the experiment on CAKI-1; 30.5 µM (inactive) in the experiment with DU-145; 5.27 µM (inactive) with SW-620; 4.86 µM (inactive) with 786-0; 27.9 µM (inactive) in the experiment with OVCAR-3; 82.2 µM (inactive) in the experiment with HT-29. Also, the GI50 in the experiment on HOP-92 is 3.94 µM (inactive); in the experiment on SR, 3.83 µM (inactive); in the experiment with SK-MEL-2, 3.31 µM (inactive); in the experiment on MDA-MB-435, 3.19 µM (inactive); in the experiment with HOP-62 it was 12.4 µM (inactive); in the experiment with CCRF-CEM it was 2.28 µM (inactive). Further, the GI50 with OVCAR-8 is 4.35 µM (inactive); with A498 it was > 9.27 µM (inactive).
As to `O=C1/C(=C\c2cccc(Oc3ccccc3)c2)S(=O)(=O)C(c2ccccc2)N1c1ccccc1Cl` (stereo not given), the GI50 with HCT-15 is 31.2 µM; in the experiment on HCT-116, 15.4 µM (inactive); in the experiment with SN12C, 23 µM (inactive); with IGROV-1 it was 17.1 µM (inactive); in the experiment on SF-295, 30.8 µM (inactive); in the experiment with LOX IMVI, 29.2 µM (inactive). The GI50 in the experiment with CAKI-1 was 32.6 µM (inactive); with DU-145, 36.1 µM (inactive); in the experiment with SW-620, 30.2 µM (inactive); with 786-0, 29.3 µM (inactive); with OVCAR-3 it was 20.9 µM (inactive); with HT-29, 22.6 µM (inactive). For the same molecule, the GI50 in the experiment with HOP-92 is 17.9 µM (inactive); with SR it was 17.9 µM (inactive); with SK-MEL-2, 26 µM (inactive); with MDA-MB-435, 27.7 µM (inactive); with HOP-62 it was 26.4 µM (inactive); with CCRF-CEM, 19.1 µM (inactive). Further, the results for the GI50 in the experiment on OVCAR-8 and with A498 were 23.4 µM (inactive) and 45.6 µM (inactive), respectively.
Regarding `Cc1ccc(S(=O)(=O)n2cc(C=O)c(-c3cn(S(=O)(=O)c4ccc(C)cc4)cc3-c3cn(S(=O)(=O)c4ccc(C)cc4)cc3C=O)c2)cc1`, the GI50 with HCT-15 was 55.7 µM; with HCT-116, 28 µM (inactive); with SN12C it was > 100 µM (inactive); in the experiment on IGROV-1, 53.8 µM (inactive); with SF-295 it was 42.9 µM (inactive); in the experiment with LOX IMVI it was 21.9 µM (inactive). In addition, the GI50 is > 100 µM (inactive) with CAKI-1; 69.3 µM (inactive) with DU-145; 45.1 µM (inactive) with SW-620; 35.8 µM (inactive) in the experiment on 786-0; 78.9 µM (inactive) in the experiment on OVCAR-3; 36.2 µM (inactive) with HT-29. Moreover, the GI50 in the experiment on HOP-92 was 45.4 µM (inactive); with SR, 13.6 µM (inactive); with SK-MEL-2 it was 33.8 µM (inactive); in the experiment on MDA-MB-435, 44.8 µM (inactive); with HOP-62 it was > 100 µM (inactive); with CCRF-CEM it was 17.9 µM (inactive). In addition, the GI50 in the experiment on OVCAR-8 was 37.2 µM (inactive); in the experiment with A498, > 100 µM (inactive).
On to `Cc1cc(N(CCOS(C)(=O)=O)CCOS(C)(=O)=O)ccc1/C=N/c1ccc(-c2csc(-c3ccc(Br)cc3)n2)cc1`, for which the GI50 in the experiment on HCT-15 is 15.2 µM; in the experiment on HCT-116, 27.5 µM (inactive); with SN12C, 10.7 µM (inactive); with IGROV-1, 5.43 µM (inactive); with SF-295, 2.95 µM (inactive); in the experiment on LOX IMVI it was 9.18 µM (inactive). Further, the GI50 with CAKI-1 is 0.285 µM (active); with DU-145, 1.91 µM (inactive); with SW-620, 15.6 µM (inactive); with 786-0 it was 1.84 µM (inactive); with OVCAR-3, 10.3 µM (inactive); with HT-29 it was 7.06 µM (inactive). Also, the GI50 is 14.4 µM (inactive) in the experiment on HOP-92; 1.7 µM (inactive) in the experiment with SR; 24.7 µM (inactive) in the experiment on SK-MEL-2; 17.2 µM (inactive) in the experiment on MDA-MB-435; 4.58 µM (inactive) with HOP-62; 1.12 µM (inactive) in the experiment on CCRF-CEM. Also, the GI50 in the experiment with OVCAR-8 was 12.9 µM (inactive); in the experiment on A498, 2.11 µM (inactive).
For the molecule `COc1cc(OC)c(/C=C\c2cc(/C=C/c3c(OC)cc(OC)cc3OC)c3ccccc3[n+]2C)c(OC)c1`, the GI50 with HCT-15 is 0.719 µM; in the experiment with HCT-116 it was 2.47 µM (inactive); in the experiment with SN12C, 2.18 µM (inactive); in the experiment with IGROV-1, 3.24 µM (inactive); in the experiment with SF-295, 2.31 µM (inactive); in the experiment with LOX IMVI, 4.07 µM (inactive). The GI50 is 6.61 µM (inactive) with CAKI-1; 5.94 µM (inactive) in the experiment on DU-145; 2.39 µM (inactive) with SW-620; 2.2 µM (inactive) with 786-0; 2.33 µM (inactive) in the experiment on OVCAR-3; 1.83 µM (inactive) in the experiment on HT-29. Also, the GI50 was 2.95 µM (inactive) in the experiment on HOP-92; 2.24 µM (inactive) in the experiment with SR; 1.74 µM (inactive) with SK-MEL-2; 2.48 µM (inactive) with MDA-MB-435; 1.07 µM (active) with HOP-62; 1.38 µM (inactive) in the experiment with CCRF-CEM. Besides, the GI50 was 1.94 µM (inactive) with OVCAR-8 and 4.59 µM (inactive) in the experiment on A498.
As to `CC(C)=CC1C(C(=O)OCc2cc3c(cc2Cl)OCO3)C1(C)C` (stereo not given), the GI50 is 30.1 µM in the experiment with HCT-15; 26.4 µM (inactive) in the experiment with HCT-116; 28.6 µM (inactive) in the experiment on SN12C; 20 µM (inactive) in the experiment with IGROV-1; 26.3 µM (inactive) in the experiment with SF-295; 16.6 µM (inactive) with LOX IMVI. For the same molecule, the GI50 in the experiment with CAKI-1 is 56.1 µM (inactive); with DU-145, > 100 µM (inactive); in the experiment on SW-620, 55.7 µM (inactive); in the experiment on 786-0, 28.4 µM (inactive); in the experiment on OVCAR-3, 20.6 µM (inactive); with HT-29, 23.1 µM (inactive). For the same molecule, the GI50 was 31.7 µM (inactive) in the experiment on HOP-92; 15.7 µM (inactive) in the experiment with SR; 6.4 µM (inactive) in the experiment on SK-MEL-2; 33.7 µM (inactive) in the experiment on MDA-MB-435; 22.7 µM (inactive) with HOP-62; 32.6 µM (inactive) in the experiment on CCRF-CEM. The GI50 in the experiment on OVCAR-8 was 44.3 µM (inactive); in the experiment with A498 it was 26.9 µM (inactive).
In the case of `C[C@]12CC[C@H]3[C@@H](CC=C4C[C@@H](O)CC[C@@]43C)[C@@H]1C/C(=C\c1ccncc1)[C@@H]2O`, the GI50 in the experiment on HCT-15 is 20.9 µM; in the experiment with HCT-116, 18.7 µM (inactive); in the experiment on SN12C it was 17.2 µM (inactive); with IGROV-1 it was 21.8 µM (inactive); in the experiment with SF-295, 16.6 µM (inactive); with LOX IMVI, 22 µM (inactive). Moreover, the GI50 in the experiment on CAKI-1 is 18.1 µM (inactive); in the experiment on DU-145, 23.1 µM (inactive); in the experiment with SW-620, 31.1 µM (inactive); with 786-0, 21.1 µM (inactive); with OVCAR-3, 23.7 µM (inactive); in the experiment with HT-29, 20.9 µM (inactive). Further, the GI50 with HOP-92 is 2 µM (inactive); with SR, 8.87 µM (inactive); in the experiment on SK-MEL-2, 21.1 µM (inactive); in the experiment with MDA-MB-435, 19.7 µM (inactive); in the experiment on HOP-62 it was 29.9 µM (inactive); in the experiment on CCRF-CEM it was 19.5 µM (inactive). Moreover, the GI50 in the experiment with OVCAR-8 is 15 µM (inactive); with A498, 13.9 µM (inactive).
As for `CC1=C[C@@H](C)C[C@]2(C)CC[C@H](O2)[C@]23CC[C@](CO)(C[C@H](O2)[C@@H]2O[C@@](C)(CC2=O)[C@@H](O)[C@H]2CC[C@@]4(CCC[C@@H](O4)[C@H](C)C(=O)O[C@H]4C[C@H]([C@]5(O)OCC[C@H](C)[C@@H]5O)O[C@H]4C=C1)O2)O3`, the GI50 with HCT-15 is 0.15 µM; in the experiment on HCT-116, 0.0222 µM (active); in the experiment on SN12C it was 0.0212 µM (active); with IGROV-1 it was 0.00373 µM (active); in the experiment on SF-295, 0.00341 µM (active); with LOX IMVI it was 0.001 µM (active). Also, the GI50 in the experiment on CAKI-1 is 0.00724 µM (active); in the experiment on DU-145, 0.247 µM (active); in the experiment on SW-620, 0.214 µM (active); in the experiment with 786-0, 0.00843 µM (active); with OVCAR-3 it was 0.0171 µM (active); in the experiment on HT-29, 0.0166 µM (active). In addition, the GI50 was 0.00163 µM (active) with HOP-92; 0.0139 µM (active) in the experiment on SR; 0.0513 µM (active) in the experiment with SK-MEL-2; 0.0249 µM (active) in the experiment with MDA-MB-435; 0.00345 µM (active) with HOP-62; 0.00471 µM (active) in the experiment with CCRF-CEM. For the same molecule, the figures for the GI50 in the experiment with OVCAR-8 and with A498 were 0.0562 µM (active) and 0.00229 µM (active), respectively.
